Measurements from patent US5077292A, “(2-imidazolin-2-ylamino) tetrahydroquinoxalines and methods for using same” (priority 1989, dated 1991).

Experiments:
[1] = system: Alpha 3 Adrenergic Receptors; test: Rabbit Saphenous Vein: Alpha 3 Adrenergic Receptors; type: cell-based, albino rabbit; conditions: rabbit saphenous vein rings, 37° C., field stimulated; n = number of test runs
Description: (§1) The tetrahydroquinoxalines produced in Examples 1 to 3 were tested for activity using the following in vitro methods.
Rabbit Saphenous Vein: Alpha 3 Adrenergic Receptors
Thoracic aorta and saphenous vein specimens were obtained from albino rabbits that were killed by CO2 inhalation. The aorta and saphenous vein were each cut into 3 mm rings. Tissues were placed in Krebs-Hensleit solution of the following composition (millimolar): NaCl 119; KCl 4.7; MgSO4 1.5, KH2 PO4 1.2; CaCl2 2.5; NaHCO3 25 and glucose 11.0. The solution also contained cocaine (0.1 millimolar) to block neuronal uptake and EDTA (30 micromolar) and ascorbic acid (5 micromolar) to prevent oxidation of the tetrahydroquinoxaline being tested. Tissues were hung in 10 ml organ baths and tension was measured via Grass FT03 force-displacement transducers. Resting tension was 1 g and 2 g for the saphenous vein and aorta, respectively. The solution was gassed with 95% O2 and 5% CO2 and maintained at 37° C. Tissues were allowed to equilibrate for 2 hours before stimulation and the cumulative addition of the tetrahydroquinoxaline being treated was started. Tissue stimulation was performed as with the rabbit vas deferens, described above. The contractions of the tissue were recorded isometrically as for the rabbit vas deferens assay. […]

urine flow = test: renal effects (urine flow), intraduodenal administration; type: in vivo, Sprague-Dawley rats; conditions: test run 3 times
Description: (§2) The tetrahydroquinoxaline produced in Example 1 was tested for renal and blood pressure effects using the following method.
(§3) Young male (20-24 weeks old) Sprague-Dawley rats were used. Under ketamine (60 mg/kg b.wt. i.m.) and pentobarbital (i.p. to effect) anesthesia, medical grade plastic tubes were implanted into the abdominal aorta and vena cava via the femoral vessels. In addition, a Silastic-covered stainless steel cannula were sewn in the urinary bladder. After the surgery, the rats were housed individually and were allowed free access to food and water until the day of the experiment.
(§4) For about 7 to 10 days before surgery and during recovery, the rats were accustomed to a restraining cage by placement in the cage for 2 to 3 hours every 2nd and 3rd day. The cage was designed for renal clearance studies (a model G Restrainer sold by Braintree Scientific, Inc., Braintree, Mass.). The animals' adjustment to the cage was judged by the stability of blood pressure and heart rate.
For an experiment, a rat was placed in the restraining cage, and the arterial line was connected to a Statham pressure transducer and a Beckman Dynograph R61 to monitor the mean arterial blood pressure, hereinafter referred to as MAP. The venous line was connected to an infusion pump system for infusion of replacement fluid. The tetrahydroquinoxaline was administered intraduodenally by cannula. The bladder cannula was extended with a silastic tube to facilitate collection of urine in preweighed tubes. The volume of urine was measured gravimetrically. Body weight was recorded before and after the experiment.
Throughout the experiments, 0.9% NaCl containing 10% polyfructosan (Inutest) and 1% sodium PAH was infused at a rate of 20 microliters/min. An equilibration period of 60 minutes was followed by two consecutive 30 minute control clearance periods. Then, the tetrahydroquinoxaline was administered for 90 minutes. Urine collection was resumed 10 minutes after the start of tetrahydroquinoxaline administration. By this time the washout of the bladder cannula dead space (approximately 200 microliters) was completed. Three additional clearance measurements were made. Blood samples (150 microliters) were collected at the midpoint of urine collections. Plasma was separated and saved for analyses, and the cells were resuspended in saline and returned to the animals. Water and sodium loss was carefully replaced i.v. by a variable speed infusion pump.

[2] = system: mean arterial blood pressure; test: blood pressure effects (MAP) in anti-diarrheal test; type: in vivo, rats; conditions: p.o.
Description: (§5) The tetrahydroquinoxaline produced in Example 1 was tested for anti-diarrheal effects and blood pressure effects using the following method.
(§6) Cecectomies were performed in unfasted rats as follows. Under anesthesia with methohexital (60 mg/kg. i.p.), a laparotyphlectomy was initiated with a 2 cm midventral incision. The cecum was lifted from the abdominal cavity and exteriorized onto a gauze drape. The cecal apex was freed by severing the avascular area of the mesocecum. Next, a ligature of #1 silk suture was positioned so as to occulude the cecum and its vasculature without compromising ileo-colonic patency. After the ligature was secured and ileo-colonic patency confirmed, the cecum was resected, and the remaining exposed cecal mucosa was washed with saline and cauterized. The intestinal segment was then returned to the abdominal cavity, and the abdominal muscle facia closed with interrupted 4/0 chromic-gut sutures. The dermal incision was closed with 9 mm stainless steel wound clips that were removed approximately 1 week post surgery. An arterial line was also implanted into the abdominal aorta and vena cava via the femoral vessels, in a manner similar to that described in Example 10. Immediately following the surgical procedure, animals were returned to their cages and allowed free access to food and water. Animals were permitted at least 48 hour recovery period before being used in experiments.
(§7) The cecectomized rats were put into individual wire-bottomed cages placed over sheets of clean paper, and deprived of food and water for the duration of the assay. The MAP was monitored, as described in Example 10, throughout the assay. Rats were given a 2 hour acclimatization period prior to the start of the assay in order to eliminate sporadic episodes of anxiety-induced defecation. During this period they were observed also for consistent occurrences of pelleted feces; an animal producing other than a pelleted stool was disqualified from the study.
(§8) Diarrhea was induced with oral administration of 16,16-dimethyl prostaglandin E2 (dmPGE2) in 3.5% EtOH. The tetrahydro-quinoxaline was administered by gavage after the onset of diarrheal episodes. The cage papers were removed and examined at 30 minute intervals for dmPGE2 -induced diarrhea. Fecal output was recorded at each interval and fecal consistency is assigned a numerical score in each experimental group as follows: 1=normal pelleted stool; 2=soft-formed stools; 3=water stool and/or diarrhea. The fecal output index (FOI) is defined as the summation of the number of defecation episodes and their ranked consistency score within an observation period.

[3] = system: Alpha 1 Adrenergic Receptors; test: Rabbit Aorta: Alpha 1 Adrenergic Receptors; type: cell-based, albino rabbit; conditions: rabbit aorta rings, 37° C., field stimulated; n = number of test runs
Description: as §1
Rabbit Aorta: Alpha 1 Adrenergic Receptors
Thoracic aorta and saphenous vein specimens were obtained from albino rabbits that were killed by CO2 inhalation. The aorta and saphenous vein were each cut into 3 mm rings. Tissues were placed in Krebs-Hensleit solution of the following composition (millimolar): NaCl 119; KCl 4.7; MgSO4 1.5, KH2 PO4 1.2; CaCl2 2.5; NaHCO3 25 and glucose 11.0. The solution also contained cocaine (0.1 millimolar) to block neuronal uptake and EDTA (30 micromolar) and ascorbic acid (5 micromolar) to prevent oxidation of the tetrahydroquinoxaline being tested. Tissues were hung in 10 ml organ baths and tension was measured via Grass FT03 force-displacement transducers. Resting tension was 1 g and 2 g for the saphenous vein and aorta, respectively. The solution was gassed with 95% O2 and 5% CO2 and maintained at 37° C. Tissues were allowed to equilibrate for 2 hours before stimulation and the cumulative addition of the tetrahydroquinoxaline being treated was started. Tissue stimulation was performed as with the rabbit vas deferens, described above. The contractions of the tissue were recorded isometrically as for the rabbit vas deferens assay. Cumulative concentration response curves were obtained and the EC50 valve developed for each tetrahydroquinoxaline tested in a manner similar to that for the rabbit vas deferens assay.

dmPGE2-induced diarrhea = test: anti-diarrheal effects in cecectomized rats, dmPGE2-induced diarrhea; type: in vivo; conditions: p.o.
Description: as §5, §6, §7, §8

[4] = system: mean arterial blood pressure; test: blood pressure effects (MAP) in renal test, intraduodenal administration; type: in vivo, Sprague-Dawley rats; conditions: test run 3 times
Description: as §2, §3, §4
For an experiment, a rat was placed in the restraining cage, and the arterial line was connected to a Statham pressure transducer and a Beckman Dynograph R61 to monitor the mean arterial blood pressure, hereinafter referred to as MAP. […] The volume of urine was measured gravimetrically. Body weight was recorded before and after the experiment. […]

intraocular pressure = test: effect on intraocular pressure, topical unilateral administration to rabbit eye; type: in vivo, New Zealand white rabbit; conditions: 0.1% (W/V)
Description: The three (3) tetrahydroquinoxaline derivatives produced in accordance with Examples 1 to 3 were tested to determine what effect, if any, these materials have on intraocular pressure.
Each of these materials was dissolved in distilled water at a concentration of 0.1% (W/V). Each of these solutions was administered topically and unilaterally to one eye of a drug-naive, unanesthetized New Zealand white rabbit in a single 50 micro liter drop. The contralateral eye received an equal volume of saline prior to determining the intraocular pressure after the mixture was administered. Also, approximately 10 micro liters of 0.5% (W/V) proparacaine (topical anesthetic) was applied to the corneas of each of the rabbits before determining intraocular pressure. As a control test, six (6) other drug-naive, unanesthetized New Zealand white rabbits were treated and tested as described above except that no tetrahydroquinoxaline derivative was included in the solutions administered to the eyes.
The intraocular pressure was determined in both eyes of each rabbit before and after the solutions were administered. Such intraocular pressure determinations were made in the conventional manner using conventional equipment.

[5] = target: T1, Alpha 2 Adrenergic Receptors (Oryctolagus cuniculus, UniProt Q5ZQK3); test: Rabbit Vas Deferens: Alpha 2 Adrenergic Receptors; type: cell-based, New Zealand white rabbit; conditions: 35° C., field stimulated, 50% reduction in response height, n = number of test runs
T1 construct: from tissue; host or cells: New Zealand white rabbit vas deferens, prostatic end, field stimulated
T1 sequence (Q5ZQK3 1-451): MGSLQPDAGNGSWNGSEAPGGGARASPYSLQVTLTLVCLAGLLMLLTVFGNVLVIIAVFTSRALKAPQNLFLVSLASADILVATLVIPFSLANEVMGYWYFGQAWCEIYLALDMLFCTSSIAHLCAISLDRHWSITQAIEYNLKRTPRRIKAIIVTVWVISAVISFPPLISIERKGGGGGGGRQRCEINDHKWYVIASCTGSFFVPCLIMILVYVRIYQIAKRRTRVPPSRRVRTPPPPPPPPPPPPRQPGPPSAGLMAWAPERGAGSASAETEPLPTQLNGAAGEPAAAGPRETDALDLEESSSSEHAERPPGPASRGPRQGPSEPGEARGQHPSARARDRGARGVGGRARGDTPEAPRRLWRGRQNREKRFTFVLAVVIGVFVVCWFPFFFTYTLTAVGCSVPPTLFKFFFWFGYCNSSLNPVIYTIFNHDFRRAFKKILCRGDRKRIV
Description: as §1
Rabbit Vas Deferens: Alpha 2 Adrenergic Receptors
New Zealand white rabbits (2-3 kg) were killed by CO2 inhalation and the vasa deferentia removed. The prostatic ends of the vasa deferentia (2-3 cm lengths) were mounted between platinum ring electrodes in 9 ml organ baths and bathed in Krebs bicarbonate solution of the following composition (millimolar): NaCl 118.0; KCl 4.7; CaCl2 2.5; MgSO4 1.2; KH2 PO4 1.2; glucose 11.0; NaHCO3 25.0; which solution was maintained at 35° C. and bubbled with 95% O2 and 5% CO2. The initial tension of the vas deferens was 0.5 g. The tissues were left to equilibrate for 30 minutes before stimulation was started. Vasa were then field stimulated (0.1 Hz, 2 ms pulse width at 90 mA) using a square wave stimulator (WPI A310 Accupulser with A385 stimulus). […] Cumulative concentration-response curves were obtained for the tetrahydroquinoxaline being tested with a 4 minute contact time at each concentration. The reduction in response height was measured and expressed as a percentage of the height of the response before the addition of tetrahydroquinxoaline. Concentration response curves for each of tetrahydroquinoxalines were plotted. The effective concentration required for a 50% reduction in response height, expressed as EC50, were obtained from these curves and are set forth below.

With Brc1c(NC2=NCCN2)ccc2c1NCCN2 [Example 1, 5-Bromo-6-(2-imidazolin-2-ylamino)-1,2,3,4-tetrahydroquinoxaline] the EC50 [1] was 92 ± 19 nM, the “Increase in Urine Flow” value (urine flow; 0.01 mg/kg) was 0 microliters/min./100 g of body and the “Increase in Urine Flow” value (urine flow; 0.03 mg/kg) was 4 microliters/min./100 g of body. For the same compound, the “Increase in Urine Flow” value (urine flow; 0.1 mg/kg, P less than 0.05) was 16 microliters/min./100 g of body, the “Increase in Urine Flow” value (urine flow; 0.3 mg/kg, P less than 0.05) was 24 microliters/min./100 g of body and the “Increase in Urine Flow” value (urine flow; 1 mg/kg, P less than 0.05) was 32 microliters/min./100 g of body. The “Increase in MAP” value ([2]; 0.01 mg/kg) was 0 mm Hg, the “Increase in MAP” value ([2]; 0.03 mg/kg) was 0 mm Hg and the “Increase in MAP” value ([2]; 0.10 mg/kg) was 0 mm Hg. The “Increase in MAP” value ([2]; 0.30 mg/kg) was 0 mm Hg, the “Increase in MAP” value ([2]; 1.00 mg/kg) was 0 mm Hg and the “Increase in MAP” value ([2]; 3.00 mg/kg) was 10 mm Hg. For the same compound, the “Increase in MAP” value ([2]; 10.00 mg/kg) was 25 mm Hg, the “effect in blood pressure accompanying anti-diarrheal effects (in words)” value ([2]; cecectomized rats) was “no or a relatively minimal effect in blood pressure” and the EC50 [3] was 1130 ± 207 nM. The “Percent Reduction in FOI versus dmPGE2 Control” value (“Percent Reduction” below) (dmPGE2-induced diarrhea; 0.01 mg/kg) was 17%, the “Percent Reduction” value (dmPGE2-induced diarrhea; 0.03 mg/kg) was 60% and the “Percent Reduction” value (dmPGE2-induced diarrhea; 0.10 mg/kg) was 57%. The “Percent Reduction” value (dmPGE2-induced diarrhea; 0.30 mg/kg) was 76%, the “Percent Reduction” value (dmPGE2-induced diarrhea; 1.00 mg/kg) was 98% and the “Percent Reduction” value (dmPGE2-induced diarrhea; 3.00 mg/kg) was 98%. The “Percent Reduction” value (dmPGE2-induced diarrhea; 10.00 mg/kg) was 100%, the “anti-diarrheal effects (in words)” value (dmPGE2-induced diarrhea; cecectomized rats, dmPGE2-induced diarrhea) was “substantial anti-diarrheal effects” and the “Increase in MAP” value ([4]; 0.3 mg/kg) was 2.5 mm Hg. The “Increase in MAP” value ([4]; 1 mg/kg) was 8 mm Hg, the “effect on intraocular pressure in the treated eye (in words)” value (intraocular pressure; treated rabbit eye) was “effective to reduce intraocular pressure in the treated rabbit eye” and the “initial effect on intraocular pressure in the treated eye (in words)” value (intraocular pressure; treated rabbit eye, initial effect) was “raising the intraocular pressure”. It also gave an EC50 [5] of 1.75 nM.
Brc1c(NC2=NCCN2)ccc2c1NCCN2 [drawing 5] was tested, and the “Difference In Intraocular Pressure, Initial Effect On Treated Eye” value (intraocular pressure; single 50 micro liter drop, treated eye, initial effect, N.S. = not statistically significant) was “+10.7 ± 3.6%”, the “Difference In Intraocular Pressure, Maximum Effect on Treated Eye” value (intraocular pressure; single 50 micro liter drop, treated eye, maximum effect, N.S. = not statistically significant) was -16.0 ± 3.3% and the “Difference In Intraocular Pressure, Maximum Effect On Untreated Eye” value (intraocular pressure; single 50 micro liter drop, untreated (contralateral) eye, maximum effect, N.S. = not statistically significant) was “N.S”.
